Values joined by “and” are separate entries in the source; they are usually repeats but may differ in a detail not shown here. Identical values can stand only once. “Also recorded” adds a separate entry of the source.
Legend:
KCNQ2 = KCNQ2 (Homo sapiens, UniProt O43526); assay: [3H]GABA binding and competition, oocytes expressing KCNQ2; conditions: 100 µM
Protocol: Oocytes were then washed four times in 16 °C ND96, transferred to individual wells in a 96 well plate and lysed in 0.2% SDS in ND96. Each oocyte lysate was transferred to a scintillation vial containing 5 ml Cytoscint scintillation cocktail fluid (MP Biomedicals, Santa Ana, CA). Vials were capped, shaken, and then allowed to sit at room temperature for at least 30 min before scintillation counting in a Beckmann Coulter LS6500 liquid scintillation counter.

KCNQ2-R213A/KCNQ3-R242A = KCNQ2-R213A/KCNQ3-R242A (Homo sapiens, UniProt O43525+O43526, R213A/R242A); assay: TEVC of RA/RA mutant KCNQ2/3; type: cell-based; conditions: GABA up to 1 mM
From the text: We generated cRNA transcripts encoding human KCNQ1, KCNQ2, KCNQ3, KCNQ4, KCNQ5 or GLRA1 (NM_001146040) (GenScript, Piscataway, NJ, USA) by in vitro transcription using the T7 polymerase mMessage mMachine kit (Thermo Fisher Scientific), after vector linearization, from cDNA sub-cloned into plasmids incorporating Xenopus laevis β-globin 5′ and 3′ UTRs flanking the coding region to enhance translation and cRNA stability. We quantified cRNA by spectrophotometry. […] We injected defolliculated stage V and VI Xenopus laevis oocytes (Ecocyte Bioscience, Austin, TX and Xenoocyte, Dexter, MI) with KCNQ channel α subunit (5-20 ng) or GLRA1 (20 ng) cRNAs. We incubated the oocytes at 16 °C in Barth’s saline solution (Ecocyte Bioscience) containing penicillin and streptomycin, with daily washing, for 2–5 days prior to two-electrode voltage-clamp (TEVC) recording.
For recording, oocytes were placed in a small-volume oocyte bath (Warner) and viewed them with a dissection microscope. […] Currents were recorded in response to voltage pulses between −120 or −80 mV and + 40 mV at 20 mV intervals from a holding potential of −80 mV, to yield current-voltage relationships, current magnitude, and for quantifying activation rate. We analyzed data using Clampfit (Molecular Devices) and Graphpad Prism software (GraphPad, San Diego, CA, USA); values are stated as mean ± SEM. […]

KCNQ4 = KCNQ4 (Homo sapiens, UniProt P56696); assay: TEVC of homomeric KCNQ4 expressed in Xenopus oocytes; type: cell-based; conditions: dose response
From the text: (§1) We generated cRNA transcripts encoding human KCNQ1, KCNQ2, KCNQ3, KCNQ4, KCNQ5 or GLRA1 (NM_001146040) (GenScript, Piscataway, NJ, USA) by in vitro transcription using the T7 polymerase mMessage mMachine kit (Thermo Fisher Scientific), after vector linearization, from cDNA sub-cloned into plasmids incorporating Xenopus laevis β-globin 5′ and 3′ UTRs flanking the coding region to enhance translation and cRNA stability. We quantified cRNA by spectrophotometry. We generated mutant KCNQ2 and KCNQ3 cDNAs by site-directed mutagenesis using a QuikChange kit (Stratagene, San Diego, CA) and prepared the corresponding cRNAs as above. We injected defolliculated stage V and VI Xenopus laevis oocytes (Ecocyte Bioscience, Austin, TX and Xenoocyte, Dexter, MI) with KCNQ channel α subunit (5-20 ng) or GLRA1 (20 ng) cRNAs. We incubated the oocytes at 16 °C in Barth’s saline solution (Ecocyte Bioscience) containing penicillin and streptomycin, with daily washing, for 2–5 days prior to two-electrode voltage-clamp (TEVC) recording.
(§2) We performed TEVC at room temperature using an OC-725C amplifier (Warner Instruments, Hamden, CT) and pClamp10 software (Molecular Devices, Sunnyvale, CA) 2–5 days after cRNA injection as described in the section above. For recording, oocytes were placed in a small-volume oocyte bath (Warner) and viewed them with a dissection microscope. Chemicals were sourced from Sigma, Matrix Scientific and Santa Cruz. […] All stock solutions were diluted in bath solution on the day of experiments. KCNQ2/3 channel activation was screened for using either 30 µM or 100 µM concentrations of each of the six compounds, then dose responses were conducted as appropriate. Bath solution was (in mM): 96 NaCl, 4 KCl, 1 MgCl2, 1 CaCl2, 10 HEPES (pH 7.6). Compounds were introduced into the oocyte recording bath by gravity perfusion at a constant flow of 1 ml per minute for 3 min prior to recording. Pipettes were of 1–2 MΩ resistance when filled with 3 M KCl. Currents were recorded in response to voltage pulses between −120 or −80 mV and + 40 mV at 20 mV intervals from a holding potential of −80 mV, to yield current-voltage relationships, current magnitude, and for quantifying activation rate. We analyzed data using Clampfit (Molecular Devices) and Graphpad Prism software (GraphPad, San Diego, CA, USA); values are stated as mean ± SEM. We plotted raw or normalized tail currents versus prepulse voltage and fitted with a single Boltzmann function:1 g=(A1−A2)/1+exp(V12−V)∕VS+A2, where g is the normalized tail conductance, A1 is the initial value at −∞, A2 is the final value at +∞, V1/2 is the half-maximal voltage of activation and Vs the slope factor. Activation, deactivation, wash-in and washout kinetics were fitted with single exponential functions to yield a τ value.

GLRA1 = biological target: T1, GLRA1 (Homo sapiens, UniProt P23415); assay: TEVC of glycine receptor GLRA1 expressed in Xenopus oocytes; type: cell-based
T1 sequence (P23415 29-457): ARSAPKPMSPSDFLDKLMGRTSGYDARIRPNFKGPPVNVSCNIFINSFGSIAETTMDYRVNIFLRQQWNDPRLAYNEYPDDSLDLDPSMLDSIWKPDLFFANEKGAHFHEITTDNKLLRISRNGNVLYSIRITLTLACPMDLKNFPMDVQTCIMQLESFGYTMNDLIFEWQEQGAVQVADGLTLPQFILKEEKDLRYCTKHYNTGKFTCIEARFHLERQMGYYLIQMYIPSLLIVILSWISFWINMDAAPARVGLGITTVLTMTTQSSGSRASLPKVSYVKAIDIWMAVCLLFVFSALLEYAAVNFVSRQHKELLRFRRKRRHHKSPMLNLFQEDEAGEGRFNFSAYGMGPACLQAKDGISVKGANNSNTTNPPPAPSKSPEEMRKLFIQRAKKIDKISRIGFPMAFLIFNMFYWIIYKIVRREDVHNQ
From the text: as §1, §2

KCNQ2/KCNQ3-W265L = KCNQ2/KCNQ3-W265L (Homo sapiens, UniProt O43525+O43526, W265L); assay: TEVC of KCNQ2/3 with KCNQ3-W265L mutation; type: cell-based
From the text: We generated cRNA transcripts encoding human KCNQ1, KCNQ2, KCNQ3, KCNQ4, KCNQ5 or GLRA1 (NM_001146040) (GenScript, Piscataway, NJ, USA) by in vitro transcription using the T7 polymerase mMessage mMachine kit (Thermo Fisher Scientific), after vector linearization, from cDNA sub-cloned into plasmids incorporating Xenopus laevis β-globin 5′ and 3′ UTRs flanking the coding region to enhance translation and cRNA stability. We quantified cRNA by spectrophotometry. We generated mutant KCNQ2 and KCNQ3 cDNAs by site-directed mutagenesis using a QuikChange kit (Stratagene, San Diego, CA) and prepared the corresponding cRNAs as above. […]
We performed TEVC at room temperature using an OC-725C amplifier (Warner Instruments, Hamden, CT) and pClamp10 software (Molecular Devices, Sunnyvale, CA) 2–5 days after cRNA injection as described in the section above. […] Currents were recorded in response to voltage pulses between −120 or −80 mV and + 40 mV at 20 mV intervals from a holding potential of −80 mV, to yield current-voltage relationships, current magnitude, and for quantifying activation rate. We analyzed data using Clampfit (Molecular Devices) and Graphpad Prism software (GraphPad, San Diego, CA, USA); values are stated as mean ± SEM. […]

CS(=O)(=O)N(CC(=O)O)c1cccc(F)c1 [3FMSG]
competition of GABA binding to KCNQ2 (KCNQ2): able to compete out GABA binding | activation / sensitivity of RA/RA mutant KCNQ2/3 (KCNQ2-R213A/KCNQ3-R242A): larger reduction in sensitivity | effects on KCNQ4 (KCNQ4): negligible or much less potent effects | inhibition of glycine-activated GLRA1 (GLRA1; 100 µM, 1 mM glycine): 35-40% and ~ 40% | activation of GLRA1 (GLRA1; 1 mM, compound alone): Neither compound activated GLRA1 | inhibition of the activation of GLRA1 by 1 mM glycine (GLRA1; each at 100 µM): partially inhibited | effect of the KCNQ3-W265L mutation within KCNQ2/3 (KCNQ2/KCNQ3-W265L): dependent on KCNQ3-W265; also recorded: eliminated effects of 3FMSG

— PMC6825221, “In silico re-engineering of a neurotransmitter to activate KCNQ potassium channels in an isoform-specific manner” (Communications Biology, 2019)
